In US10501503B2, “Modified membrane permeability” (Cathay Biotech Inc., priority 2015, dated 2019):

Key:
[1] = system: H. alvei; assay: Cadaverine inhibits gram-negative bacteria: lysine-to-cadaverine conversion after pre-incubation in cadaverine; type: cell-based, Hafnia alvei; conditions: 3% cadaverine for 24 hours
Description: We studied the affect of cadaverine on the gram-negative bacteria H. alvei. First, H. alvei was transformed with pCIB60 and grown for 24 hours in 50 mL LB medium with ampicillin (100 μg/mL) at 37° C. The following day, 50 mL of the seed culture was added to a 10 L jar fermenter containing […] of fermentation medium (20 g/L glucose, 30 g/L corn steep liquor, 10 g/L yeast extract, 5 g/L ammonium sulfate, 10 g/L MgSO4, 0.05 g/L FeSO4, 0.05 g/L MnSO4, 5 g/L CaCl2, 0.1 g/L ampicillin), and the fermentation proceeded for 18 hours. 10 g of fermentation broth was collected, centrifuged at 6000 rpm for 5 min at room temperature, and the biomass was recovered. 0.5 g of biomass was added to a 50 mM potassium phosphate buffer with either 0% or 3% cadaverine for 24 hours. After incubation, each sample was centrifuged at 6000 rpm for 5 min at room temperature, the biomass was recovered, and fresh potassium phosphate buffer with lysine-HCl and PLP to a final concentration of 200 g/L and 0.1 mM, respectively, was added. The initial pH of the reaction as adjusted to 5.0, and the reaction was allowed to proceed for 120 minutes at 37° C. […] The cadaverine concentration in each sample was quantified using NMR, and yield was calculated by dividing the molar amount of cadaverine produced by the molar amount of lysine added.

[2] = system: E. coli; conditions: Qian et al., Biotechnology and Bioengineering 108:93-103, 2010; cited from earlier work

## NCCCCCN [cadaverine]
[1]
  Effect of cadaverine pre-incubation on the cells' ability to convert lysine to cadaverine: significant decrease in conversion ability
[2]
  Effect of cadaverine on growth of E. coli: inhibits growth
